Measurements from patent publication US11458163B2, “Platinum(IV) conjugates and methods of use” (priority 2019, dated 2022).
“Also recorded” adds a separate entry of the source.

Experiments:
[1] = cited from earlier work
calreticulin (CRT) = test: Calreticulin translocation in AT84 cells transfected with mouse CRT-HaloTag-KDEL fusion protein; format: cell-based; settings: 500 μM, 12-15 hours (overnight)
Source text: Plasmid: The full cDNA sequence of the insert was published by Golden et al. (21) and codes for a mouse calreticulin-HaloTag®-KDEL fusion protein. The cDNA sequence includes Mus musculus calreticulin (Accession BC003453, Version BC003453.1, CDS 37-1286), the HaloTag® vector (Accession HM157289, Version HM157289.1, CDS 197-1081), and a KDEL sequence. This cDNA sequence was inserted into a mammalian expression vector, pD643-Rc, by DNA2.0 (now ATUM, Newark, Calif.). The vector includes a CayenneRFP reporter protein (Ex:554 nm/Em:590 nm) used to visualize positively transfected cells.
AT84 cells were plated in 6-well culture plates and allowed to grow to ˜90% confluence. Cells were transfected with a plasmid containing a mouse calreticulin-HaloTag®-KDEL fusion protein and a CayenneRFP reporter protein using lipofectamine (Invitrogen, Carlsbad, Calif.). Five microliters of lipofectamine was added to 150 μl Opti-MEM (Gibco, Thermo Fisher Scientific, Waltham, Mass.). Ten micrograms of plasmid DNA was added to 150 μl Opti-MEM. Both solutions were incubated at room temperature for 5 minutes. DNA solution was added to lipofectamine solution and incubated for 20 minutes at room temperature. During incubation, media on the cells were replaced with serum-free media (2 mL). 250 μl of DNA:lipofectamine solution was added dropwise to each well, which contained 2 mL of serum-free media. […]

[2] = test system: AT84 murine head and neck squamous cell carcinoma cell line; test: Anti-proliferation study, AT84 cells (Resazurin Blue); format: cell-based, mouse; settings: 72 hours, n=7-8
Description: AT84 cells were derived from a spontaneous squamous cell carcinoma in the oral mucosa of a C3H mouse (19,20) and were gifted by Aldo Venuti (Regina Elena National Cancer Institute, Rome, Italy). Cells tested negative for interspecies contamination (Idexx BioResearch, CellCheck STR profiling). Cells tested negative for rodent pathogens (Idexx BioResearch, IMPACT I PCR profile). Cells tested negative for Mycoplasm contamination (Lonza, Basel, Switzerland, MycoAlert test kit). Cells were cultured in RPMI-1640 media (Gibco, Thermo Fisher Scientific, Waltham, Mass.) supplemented with 10% FBS (Corning Corning, N.Y.), and 100 U/mL penicillin/100 μg/mL streptomycin (HyClone, Thermo Fisher Scientific, Waltham, Mass.) in a humidified incubator at 37° C. and 5% CO2.
AT84 cells were maintained in RPMI-1640 media (Gibco) with 10% fetal bovine serum (Corning), and 100 U/mL penicillin/100 μg/mL streptomycin (HyClone) in a humidified incubator at 37° C. and 5% CO2. Cells were seeded into 96-well plates (3,000 cells/well in 90 ul media) and allowed to attach overnight. […] Fluorescence (λex 550 nm, λem 605 nm) was quantified with a SpectraMax Gemini XS plate-reader (Molecular Devices, Sunnyvale, Calif.). […] Data from at least five separate experiments was analyzed using non-linear regression (GraphPad Prism 5.0) to generate […].

calf thymus DNAs = settings: cited from earlier work
MDA-1986 xenografts = test: Immunodeficient tumor model: orthotopic MDA-1986 xenografts in nude mice; format: in vivo
Description: Nude mice (Charles River Ath/nu, 6-8 weeks old, 20-25 g) were used for in vivo tumor studies. Both male and female mice were used in the studies. […] Mice were anesthetized using 5% isoflurane in O2 for 5 minutes. One million MDA-1986 cells in 50 μl PBS were injected subcutaneous into the left cheek of nude mice to obtain orthotopic xenograft tumors (13,15). Treatment began when tumors reached 75 mm^3. Under isoflurane anesthesia, Pt(IV)-toco/HA-toco composition (3 mg/kg on Pt(IV)-toco basis) or vehicle (1.5 MDa hyaluronan, 16.7 mg/mL) was injected intratumoral on days 14, 21, and 28 after the tumor cell injection. Tumor size was calculated using the same equation as stated in the C3H model.

[3] = test system: naturally occurring cancers; test: Open-label compassionate-care clinical trial of intralesional therapy in pet dogs; format: in vivo, dog; settings: proposed dose level
Description: An open-label, compassionate-care clinical trial was conducted in pet dogs with various types of cancer to evaluate the feasibility of intralesional delivery of Pt(IV)-toco/HA-toco composition as chemotherapy. The most common types of cancer include squamous cell carcinoma, soft tissue sarcoma, and oral melanoma. Typical exclusion criteria such as small breeds, large tumor burden, short life expectancy, metastatic disease, and certain pre-existing conditions (e.g., Cushing's disease) were not implemented in this study.
The reported study was conducted in 18 veterinary hospitals in the Kansas City area. Most pets received either Pt(IV)-toco/HA-toco or HylaPlat treatment at 3-week intervals for up to 10 treatments, ranging from 1 to 17.5 mg/m^2 on cisplatin basis. Clinical chemistry and hematology were obtained before and after each treatment to evaluate the tolerability of the therapy. A physical exam including measurements of tumor(s) was performed approximately every 3-weeks to monitor the response status of the subjects.

AT84 allografts = test: Immunocompetent tumor model: orthotopic AT84 allografts in C3H mice; format: in vivo
Description: Wildtype C3H mice (Charles River Strain 025, 6-8 weeks old, 20-25 g) were used for in vivo tumor studies. Both male and female mice were used in the studies. […] Mice were anesthetized using 5% isoflurane in O2 for 5 minutes. One million AT84 cells in 50 μl PBS were injected subcutaneous (s.c.) into the floor of the mouth via an extra-oral route of C3H mice to obtain orthotopic allograft tumors (19,20). […] Under isoflurane anesthesia, Pt(IV)-toco/HA-toco composition (3 mg/kg on Pt(IV)-toco basis) or vehicle (50 μl hyaluronan-tocopherol, 16.7 mg/mL) was injected intratumoral on days 4, 11, and 18 after the tumor cell injection. Tumor size was calculated: tumor volume (mm^3)=0.52×(width)^2×length, where length is the longer of two perpendicular dimensions.

[4] = Ongoing tolerability studies in rabbits; format: in vivo; settings: proposed dose level
[5] = last pair of measurements vs control, 3 mg/kg intratumoral once per week for 3 weeks

Compound: N.N.O=C([O-])C1(C(=O)[O-])CCC1.[Pt+2] [carboplatin]
- safety in cats [1]: may be safe

Compound: N.N.[Cl][Pt][Cl] [cisplatin, Cis-Dichlorodiamine platinum (II)]
- CRT translocation to the cell surface (indicator of ICD) (calreticulin (CRT)): does not cause CRT translocation to the membrane; also recorded: does not show CRT translocation
- safety in cats [1]: hydrothorax, pulmonary and mediastinal edema
- IC50 [2]: 3000 ± 260 nM

Compound: O=C1[O][Pt]2([NH][C@@H]3CCCC[C@H]3[NH]2)[O]C1=O [oxaliplatin, Oxaliplatin]
- CRT translocation to the cell surface (indicator of ICD) (calreticulin (CRT)): membrane translocation of CRT is observed; also recorded: show CRT translocation
- formation of Pt-DNA adducts relative to cisplatin (calf thymus DNAs): approximately one tenth

Compound: Pt(IV)-Su-Gly-Toco [Pt(IV)-toco]
- tumor volume, mean SEM, last pair of measurements (MDA-1986 xenografts; 3 mg/kg on Pt(IV)-toco basis intratumoral, days 14, 21, 28): 812±150 mm^3
- tumor inhibition (MDA-1986 xenografts; [5]): 43%
- dose-limiting toxicities (renal dysfunction, ototoxicity, peripheral neuropathy) [3]: did not cause any dose-limiting toxicities
- tumor volume, mean±SEM, last pair of measurements (AT84 allografts; 3 mg/kg on Pt(IV)-toco basis intratumoral, days 4, 11, 18): 1024±129 mm^3
- survival rate (AT84 allografts; by the time all control mice have succumbed): 100%
- tumor inhibition (AT84 allografts; [5]): 49%
- dose-limiting toxicities (renal dysfunction, ototoxicity, peripheral neuropathy) [4]: did not cause any dose-limiting toxicities
